In assay [1] the target is T1, human FGFR3 wild type enzyme (cytoplasmic domain) (Homo sapiens, UniProt P22607).
T1 construct: human FGFR3 wild type enzyme (cytoplasmic domain, from Carna Biosciences); purchased Carna Biosciences
Kind of assay: FGFR3 wild type mobility shift assay (enzymatic assay). To be noted: 75 μM ATP, 50 minutes at 30° C, Caliper EZ reader II. The format is biochemical. From the text:
FGFR3 Wild Type Mobility Shift Assay (Enzymatic Assay)

Assay [2] relates to NIH/3T3 cells transfected with control vector. Kind of assay: NIH/3T3 mock cell proliferation assay (counter assay, CellTiter Glo). The format is cell-based. To be noted: 72-hr incubation, top concentration 30 μM, counter assay for general toxicity, read-out: NIH/3T3 MOCK CTG (IC50). The procedure: NIH/3T3 Mock Cell Proliferation Assay
In day 1, 90 μL of cell suspension (NIH/3T3 cells transfected with the same control vector as in the above two proliferation assays) (total 30,000 cells per well in growth medium (DMEM containing 1% Glutamax, 10% FBS and 1% Pen/Strep)) was seeded in a 96-well plate and then incubated overnight at 37° C. and 5% CO2. In day 2, 10 μL of growth medium containing 10-fold stock solution of testing compound was added into cell cultures (9 dose points with 3× serial dilution, starting with 30 μM, 0.3% DMSO final). After 72-hr incubation at 37° C. and 5% CO2, in day 5 a volume of 50 μL CellTiter Glo (CTG) reagent was added into cell-containing 96-well plate and the plate was incubated at room temperature for 10 minutes before RLUs (relative light unit) were measured on a microplate reader with luminescence detection module.

Assay [3] concerns the target T2, NIH/3T3 cells overexpressing FGFR3 WT-TACC3 fusion protein (Homo sapiens, UniProt P22607).
T2 construct: NIH/3T3 FGFR3 WT-TACC3 CTG (IC50); other: 72-hr incubation, CellTiter Glo, top concentration 10 μM; fused on or other part: Q9Y6A5 (Transforming acidic coiled-coil-containing protein 3)
Kind of assay: NIH/3T3 FGFR3 WT-TACC3 cell proliferation assay (CellTiter Glo). The assay is classed as cell-based. To be noted: 72-hr incubation, top concentration 10 μM, read-out: NIH/3T3 FGFR3 WT-TACC3 CTG (IC50). The procedure: NIH/3T3 FGFR3 WT-TACC3 Cell Proliferation Assay
In day 1, 90 μL of cell suspension (NIH/3T3 cells overexpressing FGFR3 WT-TACC3 fusion protein) (total 30,000 cells per well in growth medium (DMEM containing 1% Glutamax, 10% FBS and 1% Pen/Strep)) was seeded in a 96-well plate and then incubated overnight at 37° C. and 5% CO2. […] After 72-hr incubation at 37° C. and 5% CO2, in day 5 a volume of 50 μL CellTiter Glo (CTG) reagent was added into cell-containing 96-well plate and the plate was incubated at room temperature for 10 minutes before RLUs (relative light unit) were measured on a microplate reader with luminescence detection module.
Background: ATP-based viability assays read luminescence as a measure of living cells.

Assay [4] has as its system NIH/3T3 cells overexpressing FGFR3 WT-TACC3 fusion protein. As to the kind of experiment: NIH/3T3 FGFR3 WT-TACC3 cellular phospho-ERK assay (in vitro PD assay). The format is cell-based. To be noted: Mus musculus, NIH3T3; 1-hr incubation, AlphaLISA SureFire Ultra p-ERK1/2 (Thr202/Tyr204); read-out: NIH/3T3 FGFR3 WT-TACC3 pERK (IC50). A general note: Alpha assays give light when donor and acceptor beads are brought close together.
Experimental: NIH/3T3 FGFR3 WT-TACC3 Cellular Phospho-ERK Assay (In Vitro PD Assay)
50 μL of cell suspension (NIH/3T3 cells overexpressing FGFR3 WT-TACC3 fusion protein) (total 10,000 cells per well in growth medium (DMEM containing 1% Glutamax, 10% FBS and 1% Pen/Strep)) was seeded in a 384-well plate. […] After 1-hr incubation at 37° C. and 5% CO2, the medium was depleted and AlphaLISA SureFire Ultra p-ERK1/2 (Thr202/Tyr204) Assay Kit (from PerkinElmer) was applied for phospho-ERK level detection according to the kit instructions.

Assay [5] deals with T3, human FGFR3 V555L enzyme (cytoplasmic domain carrying V555L mutation) (Homo sapiens, UniProt P22607, V555L).
T3 construct: human FGFR3 V555L enzyme (cytoplasmic domain carrying V555L mutation, from Carna Biosciences); purchased Carna Biosciences
As to the kind of experiment: FGFR3 V555L mobility shift assay (enzymatic assay). The format is biochemical. To be noted: 40 μM ATP, 50 minutes at 30° C, Caliper EZ reader II. The source says:
FGFR3 V555L Mobility Shift Assay (Enzymatic Assay)

Structures are written as SMILES. Read-outs that look alike come from different tables or passages of the source.

T2 sequence (P22607 whole entry, change not shown, the tested form may be a part): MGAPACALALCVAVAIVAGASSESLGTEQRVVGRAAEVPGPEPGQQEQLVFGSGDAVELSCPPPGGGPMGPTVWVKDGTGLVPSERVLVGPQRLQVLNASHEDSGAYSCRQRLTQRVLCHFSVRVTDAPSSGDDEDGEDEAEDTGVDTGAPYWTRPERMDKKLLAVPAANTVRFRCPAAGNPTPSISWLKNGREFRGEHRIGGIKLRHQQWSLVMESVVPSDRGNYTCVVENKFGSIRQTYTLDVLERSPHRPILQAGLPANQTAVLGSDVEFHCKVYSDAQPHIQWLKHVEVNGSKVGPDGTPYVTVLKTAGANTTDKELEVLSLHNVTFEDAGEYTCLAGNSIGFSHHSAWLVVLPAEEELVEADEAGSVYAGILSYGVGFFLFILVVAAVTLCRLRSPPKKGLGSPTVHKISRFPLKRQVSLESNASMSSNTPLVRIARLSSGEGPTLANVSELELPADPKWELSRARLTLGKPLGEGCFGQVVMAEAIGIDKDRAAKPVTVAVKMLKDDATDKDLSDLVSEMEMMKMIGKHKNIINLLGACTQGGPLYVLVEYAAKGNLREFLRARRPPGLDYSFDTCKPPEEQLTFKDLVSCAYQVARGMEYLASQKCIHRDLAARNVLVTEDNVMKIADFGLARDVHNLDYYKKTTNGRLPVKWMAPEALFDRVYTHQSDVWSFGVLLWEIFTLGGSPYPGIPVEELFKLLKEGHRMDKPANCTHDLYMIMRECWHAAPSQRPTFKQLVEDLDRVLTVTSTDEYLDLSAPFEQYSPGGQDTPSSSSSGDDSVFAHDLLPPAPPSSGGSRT
T1 sequence (P22607 397-806 limits assumed): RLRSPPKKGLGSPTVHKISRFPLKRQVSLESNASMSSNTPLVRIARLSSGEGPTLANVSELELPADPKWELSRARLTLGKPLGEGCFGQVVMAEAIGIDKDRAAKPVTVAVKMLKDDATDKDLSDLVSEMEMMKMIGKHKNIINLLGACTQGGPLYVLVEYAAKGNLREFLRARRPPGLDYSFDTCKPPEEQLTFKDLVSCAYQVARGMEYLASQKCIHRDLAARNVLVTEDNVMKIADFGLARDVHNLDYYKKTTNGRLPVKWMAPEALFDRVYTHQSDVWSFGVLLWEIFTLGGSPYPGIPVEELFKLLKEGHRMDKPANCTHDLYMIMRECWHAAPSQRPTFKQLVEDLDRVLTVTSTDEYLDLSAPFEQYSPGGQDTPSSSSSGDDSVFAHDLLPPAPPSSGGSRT
T3 sequence (P22607 397-806 V555L limits assumed): as the sequence (P22607 397-806 limits assumed) above, with V159L counted along it

For the compound `CC(Nc1c(-c2nc3ccc(N4CCOCC4)cc3[nH]2)c(=O)[nH]c2cn(C)nc12)c1cscn1` (single isomer, unassigned) [Compound 42, (R*)-2-methyl-6-(6-morpholino-1H-benzo[d]imidazol-2-yl)-7-((1-(thiazol-4-yl)ethyl)-amino)-2H-pyrazolo[4,3-b]pyridin-5(4H)-one], the IC50 was found to be 18.9 nM in assay [1], 305 nM in assay [2] and 2.73 nM in assay [4]. In assay [3], the GI50 came to 8.84 nM.

As for `CC(Nc1c(-c2nc3ccc(N4CCOCC4)cc3[nH]2)c(=O)[nH]c2cn(C)nc12)c1cscn1` (single isomer, unassigned) [Compound 41, (S*)-2-methyl-6-(6-morpholino-1H-benzo[d]imidazol-2-yl)-7-((1-(thiazol-4-yl)ethyl)-amino)-2H-pyrazolo[4,3-b]pyridin-5(4H)-one], the IC50 in assay [1] was determined as 23.7 nM; in assay [5], 50.8 nM; in assay [2] (Mus musculus, NIH3T3, 72 h), 425 nM. The GI50 in assay [3] was 5.57 nM.

With `CC(Nc1c(-c2nc3ccc(OC4CCOCC4)cc3[nH]2)c(=O)[nH]c2cn(C)nc12)c1cocn1` (single isomer, unassigned) [Compound 36, (S*)-2-methyl-7-((1-(oxazol-4-yl)ethyl)amino)-6-(6-((tetrahydro-2H-pyran-4-yl)oxy)-1H-benzo[d]imidazol-2-yl)-2H-pyrazolo[4,3-b]pyridin-5(4H)-one], the IC50 was determined as 0.839 nM in assay [1] and 753 nM in assay [2] (Mus musculus, NIH3T3, 72 h). Moreover, the GI50 in assay [3] turned out to be 49.6 nM.

Regarding `CCn1cc2[nH]c(=O)c(-c3nc4cnc(N5CCOCC5)cc4[nH]3)c(N[C@@H](C)c3ncccn3)c2n1` [Compound 43, (S)-2-ethyl-6-(6-morpholino-1H-imidazo[4,5-c]pyridin-2-yl)-7-((1-(pyrimidin-2-yl)ethyl)-amino)-2H-pyrazolo[4,3-b]pyridin-5(4H)-one], the IC50 stood at 1.04 nM in assay [1] and 415 nM in assay [2] (Mus musculus, NIH3T3, 72 h). The GI50 in assay [3] stood at 12.6 nM.

In the case of `CC(Nc1c(-c2nc3cc(C(F)(F)F)c(N4CCOCC4)cc3[nH]2)c(=O)[nH]c2cn(C)nc12)c1ncccn1` (single isomer, unassigned) [Compound 21, (R*)-2-methyl-6-(6-morpholino-5-(trifluoromethyl)-1H-benzo[d]imidazol-2-yl)-7-((1-(pyrimidin-2-yl)ethyl)amino)-2H-pyrazolo[4,3-b]pyridin-5(4H)-one], the IC50 in assay [1] was 3.71 nM; in assay [2] (Mus musculus, NIH3T3, 72 h), 5900 nM. Also, the GI50 in assay [3] came out at 17.5 nM.

With `CC(Nc1c(-c2nc3cc(F)c(N4CCOCC4)cc3[nH]2)c(=O)[nH]c2cn(C)nc12)c1ncccn1` (single isomer, unassigned) [Compound 9, (S*)-6-(5-Fluoro-6-morpholino-1H-benzo[d]imidazol-2-yl)-2-methyl-7-((1-(pyrimidin-2-yl)ethyl)amino)-2H-pyrazolo[4,3-b]pyridin-5(4H)-one], the IC50 is 0.618 nM in assay [1] and 691 nM in assay [2] (Mus musculus, NIH3T3, 72 h). Besides, the GI50 in assay [3] stood at 17.1 nM.

Consider `C[C@H](Nc1c(-c2nc3ccc(N4CCCCC4=O)c(F)c3[nH]2)c(=O)[nH]c2cn(C)nc12)c1ncccn1` [Compound 27, (S)-6-(7-fluoro-6-(2-oxopiperidin-1-yl)-1H-benzo[d]imidazol-2-yl)-2-methyl-7-((1-(pyrimidin-2-yl)ethyl)amino)-2H-pyrazolo[4,3-b]pyridin-5(4H)-one], for which the IC50 in assay [1] stood at 0.61 nM; in assay [2] (Mus musculus, NIH3T3, 72 h), 1370 nM. In addition, the GI50 in assay [3] is 99.9 nM.

For the origin of these results see patent US11691970B2, “Pyrazolopyridinone compounds” (Janssen Pharmaceutica NV, priority 2017, dated 2023).
